Test results: PubChem BioAssay AID1549 (Sanford-Burnham Center for Chemical Genomics, 2009)
Activity calls are given as the source filed them. The rule behind the calls is not given here.

Each compound was assayed against Influenza A virus M2 proton channel (A/TW/4845/1999 H1N1) (assay: NMR binding screen, influenza A virus M2 proton channel, Kd (AID 1549)). Details: M2 protein.

Structure (SMILES) | Kd
CC(=O)O[C@@H]1c2c(ccc3ccc(=O)oc23)OC(C)(C)[C@@H]1OC(=O)CC(C)C | > 4 mM (inactive)
CC1(C)C2CC(=O)[C@]3(C)C(CC[C@@]4(C)[C@H](c5ccoc5)OC(=O)[C@H]5O[C@]543)[C@@]2(C)C=C[C@@H]1O (some centres not stated) | > 4 mM (inactive)
O=c1[nH]c(O)c(C=NC2CC2)c(=O)[nH]1 | > 4 mM (inactive)
Cc1ccc(/C=N/NC(N)=O)o1 | > 4 mM (inactive)
CC(=O)Nc1nc(-c2cccs2)cs1 | > 4 mM (inactive)
O=C1NC(=S)S/C1=C/c1ccncc1 | > 4 mM (inactive)
CN1CCN(C(=O)C2CCCNC2)CC1 (configuration not stated) | > 4 mM (inactive)
O=C(NCc1ccncc1)c1cccc(F)c1 | > 4 mM (inactive)
OCCNc1nc2ccc(Cl)cc2[nH]1 | > 4 mM (inactive)
Cc1nnsc1-c1onc(C)c1C(=O)O | > 4 mM (inactive)
Nc1ccc2c(c1)OCO2 | > 4 mM (inactive)
S=C(CN1CCCC1=S)N1CCOCC1 | > 4 mM (inactive)
CC(=O)NCC1OCCc2ccccc21 (configuration not stated) | > 4 mM (inactive)
CCOC(=O)CC1Sc2ccccc2NC1=S (configuration not stated) | > 4 mM (inactive)
OCc1snnc1-c1ccccc1 | > 4 mM (inactive)
COC(=O)NNc1ncnc(N)c1[N+](=O)[O-] | > 4 mM (inactive)
O=C(O)C1CSC(c2ccccc2)N1 (configuration not stated) | > 4 mM (inactive)
COc1ccc2cc3[n+](cc2c1OC)CCc1cc2c(cc1-3)OCO2 | > 4 mM (inactive)
O=C1CC(=O)N(c2ccccc2F)C(=S)N1 | > 4 mM (inactive)

Structure (SMILES) | Kd
c1ccc(Cn2c(Nn3cnnc3)nc3ccccc32)cc1 | > 4 mM (inactive)
O=C1C2C3C=CC(C3)C2C(=O)N1CCCO (configuration not stated) | > 4 mM (inactive)
COc1ccc(/C=C/c2cc(O)cc(O)c2)cc1 | > 4 mM (inactive)
NC1=NN(c2ccccc2)C(=O)C1 | > 4 mM (inactive)
C[N+](C)(C)CC(=O)[O-] | > 4 mM (inactive)
NC1=NC(=O)/C(=C/c2ccccc2[N+](=O)[O-])S1 | > 4 mM (inactive)
O=C1C[C@@H](c2ccccc2)Oc2cc(O)cc(O)c21 | > 4 mM (inactive)
O=C(Nc1ccccc1[N+](=O)[O-])c1ccc(=O)[nH]n1 | > 4 mM (inactive)
CCCCCCCCCCCCCc1ccco1 | > 4 mM (inactive)
Cc1nnc2sc(-c3csc4c3CCCC4)nn12 | > 4 mM (inactive)
C[C@@H]1CC[C@H]2[C@@H](C)C(=O)O[C@@H]3OC4(C)CC[C@@H]1[C@]32OO4 | > 4 mM (inactive)
CN1CCN(Cc2cccnc2)CC1 | > 4 mM (inactive)
C[C@@H]1[C@H]2[C@H](O[C@@H]3O[C@H](CO)[C@@H](O)[C@H](O)[C@H]3O)OC=C(C(=O)O)[C@H]2C[C@@H]1O | > 4 mM (inactive)
O=C(NCc1cccs1)c1nn2cccnc2c1Cl | > 4 mM (inactive)
C=C[C@@](C)(O)CCC1C(=C)C[C@H](OC(C)=O)C2C(C)(C)CCCC12C (some centres not stated) | > 4 mM (inactive)
COc1cc(N)ccc1NC(=O)c1cccs1 | > 4 mM (inactive)
CCOC(=O)c1snnc1-c1ccccc1 | > 4 mM (inactive)
COC(=O)[C@]1(C)CC[C@]2(C)CC[C@]3(C)C4=CC=C5C(=CC(=O)C(O)=C5C)[C@]4(C)CC[C@@]3(C)[C@@H]2C1 | > 4 mM (inactive)
COc1cc(C(=O)NCC2CCCO2)cc(OC)c1OC (configuration not stated) | > 4 mM (inactive)

Structure (SMILES) | Kd
O=C1OC(N2CCOCC2)c2ccccc21 (configuration not stated) | > 4 mM (inactive)
COc1ccc(-c2cc(=O)c3c(OC)c(OC)c(OC)c(OC)c3o2)cc1OC | > 4 mM (inactive)
C(=N\c1ncn[nH]1)/c1cccs1 | > 4 mM (inactive)
O=c1cc(-c2ccc(O)cc2)oc2cc(O[C@@H]3O[C@H](CO)[C@@H](O)[C@H](O)[C@H]3O[C@@H]3OC[C@](O)(CO)[C@H]3O)cc(O)c12 | > 4 mM (inactive)
COn1c(=O)c(-c2ccco2)[n+]([O-])c2ccccc21 | > 4 mM (inactive)
Nc1cc(N)nc(SCc2ccccc2)n1 | > 4 mM (inactive)
CC(=O)O[C@H]1C(=O)[C@@]2(C)C([C@H](OC(=O)c3ccccc3)[C@]3(O)C[C@H](OC(=O)[C@H](O)[C@@H](NC(=O)c4ccccc4)c4ccccc4)C(C)=C1C3(C)C)[C@]1(OC(C)=O)CO[C@@H]1C[C@@H]2O (some centres not stated) | > 4 mM (inactive)
CC(=O)c1cccc(NC(=O)Nc2c(C)nn(C)c2C)c1 | > 4 mM (inactive)
CCCCn1c(=O)cc(O)c2ccccc21 | > 4 mM (inactive)
O=C(Nc1nccs1)c1cccnc1 | > 4 mM (inactive)
COC(=O)C[C@@H]1C2(C)C(=O)[C@@H](CC3C2CC[C@]2(C)C3CC(=O)O[C@H]2c2ccoc2)[C@H](OC(C)=O)C1(C)C (some centres not stated) | > 4 mM (inactive)
COC(=O)[C@@]1(C)CCC[C@]2(C)c3ccc(O)c(C(C)C)c3CCC12 (some centres not stated) | > 4 mM (inactive)
c1cc(CNc2ccc3c(c2)OCCO3)ccn1 | > 4 mM (inactive)
OCc1cc2ccccc2o1 | > 4 mM (inactive)
CC(=O)Nc1ccc(Oc2nc(C)cc(C)n2)cc1 | > 4 mM (inactive)
CC(NC(=O)c1ccco1)C1CCCO1 (configuration not stated) | > 4 mM (inactive)
Cc1cc(O)c2c(c1)C(=O)c1cccc(O)c1C2=O | > 4 mM (inactive)
Cc1cc(C)n2nc(NCc3ccccc3)nc2n1 | > 4 mM (inactive)
CC(=O)Nc1ccc2c(c1)n(C)c(=O)n2C | > 4 mM (inactive)
